Measured values reported in US8183235B2, “Dihydronaphthalene compound and use thereof” (Tokyo University of Science Educational Foundation …, priority 2007, dated 2012).
Like-named read-outs stand apart in the source and are kept apart here.

Tests used:
[1] = target: 20S proteasome chymotrypsin-like activity (Homo sapiens, UniProt P28074); assay: Chymotrypsin-like activity inhibition test; type: biochemical; details: for remaining activity at 10 µM: read-out: % Control, Chymotrypsin-like Activity
[2] = target: 20S proteasome caspase-like activity (Homo sapiens, UniProt P28072); assay: Caspase-like activity inhibition test; type: biochemical
[3] = target: 20S proteasome trypsin-like activity (Homo sapiens, UniProt Q99436); assay: Trypsin-like activity inhibition test; type: biochemical
[4] = system: Cathepsin B; assay: Cathepsin-like activity inhibition test; type: biochemical
Procedure: Cathepsin-Like Activity Inhibition Test
(§1) 1) To 20S proteasome, naforidaifen B adjusted to a concentration of 10 μM was added, and incubated at 30° C. for 10 min.
2) To the above test system, fluorescence labeled cathepsin including a 20S proteasome segmenting sequence was added, and reacted for 1 hr at 30° C.
(§2) 3) The fluorescent substance (AMC) released by the above reaction was excited with 360 nm light and assayed with 460 nm light.
(§3) 4) A test system to which naforidaifen B was not added was measured in the same way as (1) to (3) above, and the enzyme activity for the case of using naforidaifen B was measured.
(§4) 5) Stepwise diluted solutions containing naforidaifen B were prepared, and after carrying out the same evaluations as in (1) to (4), the 50% inhibition concentration (IC50) was determined.
6) As a positive control of the enzyme activity, the known proteasome inhibitor Clasto-Lactacystin β-Lactone (Lactacystin activator) and MGI32 were evaluated with the steps (1) to (5).

[5] = target: α-chymotrypsin (Bos taurus, UniProt P00766); assay: α-Chymotrypsin-like activity inhibition test; type: biochemical
Procedure: α-Chymotrypsin-Like Activity Inhibition Test
as §1
2) To the above test system, fluorescence labeled α-chymotrypsin including a 20S proteasome segmenting sequence was added, and reacted for 1 hr at 30° C.
as §2, §3, §4
6) As a positive control of the enzyme activity, the well-known proteasome inhibitor Clasto-Lactacystin β-Lactone (Lactacystin activator) and MGI32 were evaluated with the steps (1) to (5).

[6] = target: 20S proteasome (Homo sapiens, UniProt P28072+P28074+Q99436); assay: Proteasome inhibition activity, overall judgement; type: biochemical; details: for The evaluations (proteasome inhibition activity): overall judgement positive/negative
[7] = system: SF-268; assay: Inhibition of propagation of central nervous system cancer cells (sulforhodamin B); type: cell-based; details: Homo sapiens, 48 h; SF-268, two days of cultivation
Description: (§5) As a comparison for the inhibition activity, tamoxifen citrate (TAM) was used. In the Table, the concentration units are μM.

[8] = system: SF-295; assay: as above; type: cell-based; details: Homo sapiens, 48 h; SF-295, two days of cultivation
Description: as §5

[9] = system: SF-539; assay: as above; type: cell-based; details: Homo sapiens, 48 h; SF-539, two days of cultivation
Description: as §5

[10] = system: SNB-75; assay: as above; type: cell-based; details: Homo sapiens, 48 h; SNB-75, two days of cultivation
Description: as §5

[11] = system: SNB-78; assay: as above; type: cell-based; details: Homo sapiens, 48 h; SNB-78, two days of cultivation
Description: as §5

[12] = system: U251; assay: as above; type: cell-based; details: Homo sapiens, U-251, 48 h; U251, two days of cultivation
Description: as §5

[13] = system: HCC2998; assay: Proliferation inhibition of colon cancer cells; type: cell-based; details: Homo sapiens, HCC 2998
Procedure: as §5
(§6) In the same way as in Example 9, the proliferation inhibition activity of naforidaifens A to G was measured with respect to five types of colon cancer cells (HCC2998, KM-12, HT-29, HCT-15, and HCT-116). In the Table, the concentration units are μM.

[14] = system: HCT-116; assay: Proliferation inhibition of colon cancer cells; type: cell-based; details: Homo sapiens
Procedure: as §5, §6

[15] = system: HCT-15; assay: Proliferation inhibition of colon cancer cells; type: cell-based; details: Homo sapiens
Procedure: as §5, §6

[16] = system: HT-29; assay: Proliferation inhibition of colon cancer cells; type: cell-based; details: Homo sapiens
Procedure: as §5, §6

[17] = system: KM-12; assay: Proliferation inhibition of colon cancer cells; type: cell-based; details: Homo sapiens, KM12
Procedure: as §5, §6

[18] = system: OVCAR-3; assay: Proliferation inhibition of ovarian cancer cells; type: cell-based; details: Homo sapiens
Procedure: as §5
(§7) In the same way as in Example 9, the proliferation inhibition activity of naforidaifens A to G was measured with respect to five types of ovarian cancer cells (OVCAR-3, OVCAR-4, OVCAR-5, OVCAR-8, AND SK-OV-3). In the Table, the concentration units are μM.

[19] = system: OVCAR-4; assay: Proliferation inhibition of ovarian cancer cells; type: cell-based; details: Homo sapiens
Procedure: as §5, §7

[20] = system: OVCAR-5; assay: Proliferation inhibition of ovarian cancer cells; type: cell-based; details: Homo sapiens
Procedure: as §5, §7

[21] = system: OVCAR-8; assay: Proliferation inhibition of ovarian cancer cells; type: cell-based; details: Homo sapiens
Procedure: as §5, §7

[22] = system: SK-OV-3; assay: Proliferation inhibition of ovarian cancer cells; type: cell-based; details: Homo sapiens
Procedure: as §5, §7

[23] = system: MKN1; assay: Proliferation inhibition of stomach cancer cells; type: cell-based; details: Homo sapiens, MKN-1
Procedure: as §5
(§8) In the same way as in Example 9, the proliferation inhibition activity of naforidaifens A to G was measured with respect to six types of stomach cancer cells (St-4, MKN1, MKN7, MKN28, MKN45, MKN74). In the Table, the concentration units are μM.

[24] = system: MKN28; assay: Proliferation inhibition of stomach cancer cells; type: cell-based; details: Homo sapiens, MKN-28
Procedure: as §5, §8

[25] = system: MKN45; assay: Proliferation inhibition of stomach cancer cells; type: cell-based; details: Homo sapiens, MKN-45
Procedure: as §5, §8

[26] = system: MKN74; assay: Proliferation inhibition of stomach cancer cells; type: cell-based; details: Homo sapiens, MKN-74
Procedure: as §5, §8

[27] = system: MKN7; assay: Proliferation inhibition of stomach cancer cells; type: cell-based; details: Homo sapiens, MKN-7
Procedure: as §5, §8

[28] = system: St-4; assay: Proliferation inhibition of stomach cancer cells; type: cell-based; details: Homo sapiens
Procedure: as §5, §8

[29] = system: colon cancer cells; assay: Proliferation inhibition, colon cancer cell panel (summary); type: cell-based; details: all of the five types of colon cancer cell lines; read-out: effective concentration
Procedure: as §5, §6

[30] = system: ovarian cancer cells; assay: Proliferation inhibition, ovarian cancer cell panel (summary); type: cell-based; details: all of the five types of ovarian cancer cell lines; read-out: effective concentration
Procedure: as §5, §7

[31] = system: stomach cancer cells; assay: Proliferation inhibition, stomach cancer cell panel (summary); type: cell-based; details: all of the six types of stomach cancer cell lines; read-out: effective concentration
Procedure: as §5, §8

[32] = system: central nervous system cancer cells; assay: Proliferation inhibition, central nervous system cancer cell panel (summary); type: cell-based; details: in general with respect to various central nervous system cancer cells; read-out: cytotoxic activity (extent of effective concentration)
Description: as §5

Compound	IC50 [1] [µM]	The evaluations (proteasome inhibition activity) [6]	GI50 [7] [µM]	GI50 [8] [µM]	GI50 [9] [µM]	GI50 [10] [µM]	GI50 [11] [µM]	GI50 [12] [µM]	GI50 [13] [µM]	GI50 [14] [µM]	GI50 [15] [µM]	GI50 [16] [µM]	GI50 [17] [µM]	GI50 [18] [µM]	GI50 [19] [µM]	GI50 [20] [µM]	GI50 [21] [µM]	GI50 [22] [µM]	GI50 [23] [µM]	GI50 [24] [µM]	also measured
c1ccc(C2=C(c3ccc(OCCN4CCCCCC4)cc3)c3ccc(OCCN4CCCCCC4)cc3CC2)cc1 [Naforidaifen F, 4-[4-(2-hexahydro-1H-azepin-1-yl-ethoxy)phenyl]-7-(2-hexahydro-1H-azepin-1-yl-ethoxy)-3-phenyl-1,2-dihydronaphthalene]	4.3	positive	1.7	1.78	1.66	1.74	1.7	1.48	1.07	1.23	1.23	0.501	1.59	1.41	1.78	1.32	2	1.91	1.55	1.82	remaining activity at 10 µM [1]: 34.2%; IC50 [2]: 5.1 µM; remaining activity at 10 µM ([2]; read-out: % Control, Caspase-like Activity): 39.1%; IC50 [3]: > 10 µM; remaining activity at 10 µM ([3]; read-out: % Control, Trypsin-like Activity): 251%; Cathepsin B inhibition [4]: none; α-chymotrypsin inhibition [5]: none; Proteasome selectivity ([6]; judgement): present; GI50 [25]: 1.58 µM; GI50 [26]: 1.17 µM; GI50 [27]: 1.23 µM; GI50 [28]: 1.58 µM; IC50 [29]: 0.5 to 1.5 µM; IC50 [30]: 1.2 to 1.9 µM; IC50 [31]: 1.1 to 1.8 µM
CN(C)CCCOc1ccc(C2=C(c3ccccc3)CCc3cc(OCCCN(C)C)ccc32)cc1 [Naforidaifen G, 4-[4-(3-dimethylamino-1-yl-propoxy)phenyl]-7-(3-dimethylamino-1-yl-propoxy)-3-phenyl-1,2-dihydronaphthalene]	> 10	negative	1.58	1.78	1.48	1.62	1.78	1.48	1.29	1.1	1.29	0.49	1.66	1.51	1.78	1.29	1.86	1.74	1.51	1.62	remaining activity at 10 µM ([1]; Concentration 10 μM): 105%; GI50 [25]: 1.48 µM; GI50 [26]: 1.15 µM; GI50 [27]: 1.32 µM; GI50 [28]: 1.48 µM; IC50 [32]: 1.4 to 1.9 µM; IC50 [30]: 1.2 to 1.9 µM; IC50 [31]: 1.1 to 1.8 µM
